One test concerns the target CSF-1R (Homo sapiens (Human), UniProt P07333). Description: Biochemical HTRF kinase assay, CSF-1R.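 Also: enzyme incubated with inhibitor plus a substrate and ATP mix for one hour at room temperature before HTRF detection.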 Conditions: recombinant human CSF-1R.
For the next test, the target named is c-Kit (Homo sapiens (Human), UniProt P10721). Description: Biochemical HTRF kinase assay, c-Kit.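 As to all read-outs here: enzyme reaction with substrate and ATP run in 384-well plates for 1 hour at room temperature, kinase activity detected by HTRF.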 Conditions: for IC50: recombinant human protein, read-out: cKit IC50; for cKit Fold: selectivity: IC50 of cKit as multiple of IC50 of CSF-1R. A general note: In TR-FRET formats the signal depends on donor and acceptor labels being close together.
In a further test the target is FLT3 (Homo sapiens (Human), UniProt P36888). The test can be described thus: Biochemical HTRF kinase assay, FLT3. The conditions noted are these: for IC50: recombinant human protein; for FLT3 Fold: selectivity: IC50 of FLT3 as multiple of IC50 of CSF-1R.
Another test has as its target PDGFRβ (Homo sapiens (Human), UniProt P09619). Description: Biochemical HTRF kinase assay, PDGFRβ.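 As to all read-outs here: kinase reaction with substrate/ATP mix run 1 h at room temperature in 384-well format, HTRF signal detection.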 Conditions: for IC50: recombinant human protein, read-out: PDGFR-1β IC50; for PDGFR-1β Fold: selectivity: IC50 of PDGFR-1β as multiple of IC50 of CSF-1R.
Test [1] concerns Ba/F3_CSF-1R (stably expressing human CSF-1R kinase). The test can be described thus: Cell proliferation assay, Ba/F3_CSF-1R. The format is cell-based. Conditions: BaF3, 72 h, Ba/F3_CSF-1R cells, 72 hours treatment; read-out: CSF-1R BaF3 EC50.
The next test has as its system EOC2 cell. The test can be described thus: Cell proliferation assay, EOC2. The format is cell-based, mouse. Conditions: Mus musculus, 72 h, EOC2 cells, 72 hours treatment; read-out: ECO2 EC50.

Chain of c-Kit (P10721 26-976): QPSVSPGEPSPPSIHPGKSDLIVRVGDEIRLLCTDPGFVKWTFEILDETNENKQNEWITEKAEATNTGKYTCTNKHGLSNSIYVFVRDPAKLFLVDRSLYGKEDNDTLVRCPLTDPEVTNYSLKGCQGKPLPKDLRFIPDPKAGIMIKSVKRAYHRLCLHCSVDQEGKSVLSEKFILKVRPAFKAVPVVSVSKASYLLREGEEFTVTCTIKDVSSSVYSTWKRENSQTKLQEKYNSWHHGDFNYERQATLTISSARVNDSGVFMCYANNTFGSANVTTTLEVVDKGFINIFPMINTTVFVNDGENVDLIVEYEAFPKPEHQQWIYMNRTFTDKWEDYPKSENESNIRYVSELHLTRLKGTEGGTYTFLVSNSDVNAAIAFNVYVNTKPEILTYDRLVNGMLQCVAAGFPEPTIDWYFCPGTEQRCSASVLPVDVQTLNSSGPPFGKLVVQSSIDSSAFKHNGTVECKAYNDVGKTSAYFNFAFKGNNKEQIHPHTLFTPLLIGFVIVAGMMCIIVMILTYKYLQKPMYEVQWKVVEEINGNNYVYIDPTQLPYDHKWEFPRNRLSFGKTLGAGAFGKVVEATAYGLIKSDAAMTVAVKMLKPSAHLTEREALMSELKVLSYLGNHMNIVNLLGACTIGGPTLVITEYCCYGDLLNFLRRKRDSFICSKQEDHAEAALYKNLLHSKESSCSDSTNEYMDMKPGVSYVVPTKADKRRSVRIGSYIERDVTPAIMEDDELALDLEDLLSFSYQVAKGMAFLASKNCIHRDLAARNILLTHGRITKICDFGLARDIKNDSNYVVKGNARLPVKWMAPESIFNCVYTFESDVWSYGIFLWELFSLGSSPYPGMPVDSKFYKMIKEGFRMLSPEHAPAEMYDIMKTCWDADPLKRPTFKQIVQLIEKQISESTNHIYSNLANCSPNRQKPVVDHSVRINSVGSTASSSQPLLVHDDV
Chain of PDGFRβ (P09619 33-1106): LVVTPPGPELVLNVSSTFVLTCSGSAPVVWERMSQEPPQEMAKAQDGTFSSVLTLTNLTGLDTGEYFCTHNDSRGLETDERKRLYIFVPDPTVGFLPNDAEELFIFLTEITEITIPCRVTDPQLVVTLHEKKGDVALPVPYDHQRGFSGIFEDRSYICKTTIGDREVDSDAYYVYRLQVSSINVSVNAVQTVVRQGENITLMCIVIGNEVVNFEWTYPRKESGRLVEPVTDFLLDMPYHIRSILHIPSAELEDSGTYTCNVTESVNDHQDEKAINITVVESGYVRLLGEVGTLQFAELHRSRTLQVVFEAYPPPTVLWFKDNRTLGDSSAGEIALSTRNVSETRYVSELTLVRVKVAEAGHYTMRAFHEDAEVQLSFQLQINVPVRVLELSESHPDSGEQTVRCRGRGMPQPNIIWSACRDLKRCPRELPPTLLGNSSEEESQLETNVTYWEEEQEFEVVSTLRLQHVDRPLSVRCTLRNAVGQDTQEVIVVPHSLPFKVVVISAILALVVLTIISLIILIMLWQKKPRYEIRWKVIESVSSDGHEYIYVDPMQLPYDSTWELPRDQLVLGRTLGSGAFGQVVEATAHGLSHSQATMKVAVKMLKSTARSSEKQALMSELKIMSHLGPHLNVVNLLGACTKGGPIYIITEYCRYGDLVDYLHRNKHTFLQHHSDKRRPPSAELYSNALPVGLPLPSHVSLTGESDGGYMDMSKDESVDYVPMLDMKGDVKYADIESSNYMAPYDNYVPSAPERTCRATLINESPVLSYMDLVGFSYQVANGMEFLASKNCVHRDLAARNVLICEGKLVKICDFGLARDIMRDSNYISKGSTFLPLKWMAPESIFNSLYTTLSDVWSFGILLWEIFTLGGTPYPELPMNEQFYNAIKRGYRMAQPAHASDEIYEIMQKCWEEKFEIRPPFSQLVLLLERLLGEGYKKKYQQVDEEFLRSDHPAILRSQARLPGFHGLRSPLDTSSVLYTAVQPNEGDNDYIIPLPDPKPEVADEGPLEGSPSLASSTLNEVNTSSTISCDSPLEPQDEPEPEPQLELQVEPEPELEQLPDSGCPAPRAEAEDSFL
Chain of FLT3 (P36888 27-993): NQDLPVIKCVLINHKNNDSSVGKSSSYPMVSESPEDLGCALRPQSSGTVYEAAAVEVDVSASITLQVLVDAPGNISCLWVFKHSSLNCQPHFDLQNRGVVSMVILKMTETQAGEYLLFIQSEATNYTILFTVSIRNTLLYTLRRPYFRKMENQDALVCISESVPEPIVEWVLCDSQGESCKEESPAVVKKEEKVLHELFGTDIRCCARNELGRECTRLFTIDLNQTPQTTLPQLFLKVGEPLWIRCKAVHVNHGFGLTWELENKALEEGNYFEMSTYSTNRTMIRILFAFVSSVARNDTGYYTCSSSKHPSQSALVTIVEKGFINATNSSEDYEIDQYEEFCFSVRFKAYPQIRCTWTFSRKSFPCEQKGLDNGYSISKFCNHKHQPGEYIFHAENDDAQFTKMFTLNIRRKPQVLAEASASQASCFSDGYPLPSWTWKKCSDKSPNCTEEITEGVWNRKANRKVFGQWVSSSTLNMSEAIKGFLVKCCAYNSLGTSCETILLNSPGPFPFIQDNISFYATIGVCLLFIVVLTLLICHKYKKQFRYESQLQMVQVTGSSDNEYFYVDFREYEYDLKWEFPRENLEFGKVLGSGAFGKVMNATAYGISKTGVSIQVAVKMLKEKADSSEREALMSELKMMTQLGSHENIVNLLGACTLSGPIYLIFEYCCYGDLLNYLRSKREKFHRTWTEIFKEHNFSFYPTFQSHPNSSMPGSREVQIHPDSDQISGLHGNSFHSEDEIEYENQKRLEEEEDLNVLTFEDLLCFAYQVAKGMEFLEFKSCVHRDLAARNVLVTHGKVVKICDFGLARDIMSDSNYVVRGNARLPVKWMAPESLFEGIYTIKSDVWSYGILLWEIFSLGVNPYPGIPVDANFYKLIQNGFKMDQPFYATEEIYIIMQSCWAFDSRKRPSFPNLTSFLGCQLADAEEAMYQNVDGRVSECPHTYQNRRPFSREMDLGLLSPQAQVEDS
Chain of CSF-1R (P07333 20-972): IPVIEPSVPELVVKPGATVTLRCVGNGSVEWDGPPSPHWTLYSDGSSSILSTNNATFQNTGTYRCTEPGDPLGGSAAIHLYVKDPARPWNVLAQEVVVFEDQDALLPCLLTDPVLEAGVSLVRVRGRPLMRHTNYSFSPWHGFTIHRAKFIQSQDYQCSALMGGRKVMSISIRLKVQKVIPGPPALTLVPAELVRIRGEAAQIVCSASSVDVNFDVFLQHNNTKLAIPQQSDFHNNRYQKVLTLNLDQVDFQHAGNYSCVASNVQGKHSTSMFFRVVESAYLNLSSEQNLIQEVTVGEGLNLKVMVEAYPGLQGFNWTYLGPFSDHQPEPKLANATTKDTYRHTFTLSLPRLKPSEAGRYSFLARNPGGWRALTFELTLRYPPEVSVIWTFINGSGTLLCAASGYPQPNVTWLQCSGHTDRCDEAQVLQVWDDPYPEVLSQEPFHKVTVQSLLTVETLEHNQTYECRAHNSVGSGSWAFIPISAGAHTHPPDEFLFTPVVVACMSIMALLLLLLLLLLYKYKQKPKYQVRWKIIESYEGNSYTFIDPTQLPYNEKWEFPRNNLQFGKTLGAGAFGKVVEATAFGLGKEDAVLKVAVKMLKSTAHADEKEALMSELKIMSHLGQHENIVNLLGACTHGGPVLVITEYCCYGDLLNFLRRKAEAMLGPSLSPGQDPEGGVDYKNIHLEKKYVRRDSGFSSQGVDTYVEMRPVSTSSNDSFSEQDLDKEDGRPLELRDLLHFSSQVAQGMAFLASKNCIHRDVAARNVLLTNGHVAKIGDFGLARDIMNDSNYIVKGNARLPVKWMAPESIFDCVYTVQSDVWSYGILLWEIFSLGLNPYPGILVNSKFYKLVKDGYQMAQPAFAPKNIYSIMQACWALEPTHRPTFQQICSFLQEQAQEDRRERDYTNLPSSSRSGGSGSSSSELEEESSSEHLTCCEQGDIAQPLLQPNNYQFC

With `COc1cnc2c(Cc3cnc(OCc4cc5n(n4)CCC5)c(OC)c3)ccnc2c1` [Example 72], the IC50 on CSF-1R (Table 2) was 0.0022 µM; at CSF-1R (Table 3) it was 0.0022 µM; on c-Kit, greater than 1 µM; at FLT3, greater than 1 µM; on PDGFRβ, greater than 1 µM. Also, on c-Kit, the “cKit Fold” value is listed as greater than 100 fold. For the same compound, at FLT3, the “FLT3 Fold” value was greater than 100 fold. In addition, the “PDGFR-1β Fold” value at PDGFRβ was greater than 100 fold. In addition, the results for the EC50 (in test [1]; in the test with EOC2 cell) were 0.0746 µM and 0.0589 µM, respectively.
As for `COc1cnc2c(Cc3cnc(OCc4cc(C(C)C)n(C)n4)c(OC)c3)ccnc2c1` [Example 93], the IC50 on CSF-1R (Table 2) is 0.0021 µM; on CSF-1R (Table 3) it was 0.0021 µM; at c-Kit it was greater than 1 µM; at FLT3, greater than 1 µM; on PDGFRβ it was greater than 1 µM. In addition, the “cKit Fold” value at c-Kit is reported as greater than 100 fold. On FLT3, the “FLT3 Fold” value was greater than 100 fold. The “PDGFR-1β Fold” value on PDGFRβ is recorded as greater than 100 fold. In addition, the half-maximal effective concentration (EC50) was found to be 0.0729 µM in test [1] and 0.0183 µM with EOC2 cell.
As to `COc1cnc2c(Cc3cnc(OCc4ccc(C5CC5)cn4)c(OC)c3)ccnc2c1` [Example 59], the IC50 on CSF-1R (Table 2) was 0.0044 µM; at CSF-1R (Table 3) it was 0.0044 µM; on c-Kit, greater than 1 µM; on FLT3, greater than 1 µM; at PDGFRβ, 0.349 µM. Also, on c-Kit, the “cKit Fold” value was greater than 100 fold. At FLT3, the “FLT3 Fold” value was greater than 100 fold. Besides, the “PDGFR-1β Fold” value at PDGFRβ is 79 fold. The EC50 in test [1] is 0.0415 µM; with EOC2 cell, 0.0423 µM.
For `COc1cnc2c(Cc3cnc(OCc4ccc(OC(F)F)cn4)c(OC)c3)ccnc2c1` [Example 56], the IC50 on CSF-1R (Table 2) is 0.0022 µM; at CSF-1R (Table 3), 0.0022 µM; at c-Kit it was greater than 1 µM; on FLT3 it was greater than 1 µM; on PDGFRβ it was 0.312 µM. Also, the “cKit Fold” value at c-Kit was greater than 100 fold. For the same compound, on FLT3, the “FLT3 Fold” value was greater than 100 fold. The “PDGFR-1β Fold” value on PDGFRβ was greater than 100 fold. Also, the figures for the EC50 (in test [1]; in the test on EOC2 cell) were 0.131 µM and 0.0312 µM, respectively.
Take `COc1cnc2c(Cc3cnc(OCc4cc5n(n4)C[C@@H](OC)C5)c(OC)c3)ccnc2c1` [Example 121]: the concentration for half-maximal inhibition (IC50) on CSF-1R (Table 2) was 0.0199 µM; at CSF-1R (Table 3) it was 0.0199 µM; at c-Kit, greater than 1 µM; on FLT3, greater than 1 µM; on PDGFRβ, greater than 1 µM. The “cKit Fold” value at c-Kit is greater than 50 fold. Also, the “FLT3 Fold” value on FLT3 is recorded as greater than 50 fold. Also, the “PDGFR-1β Fold” value at PDGFRβ is greater than 50 fold. For the same compound, the figures for the EC50 (in test [1]; with EOC2 cell) were 0.0411 µM and 0.0152 µM, respectively.
In the case of `COc1ccc(COc2ncc(Cc3ccnc4cc(N(C)C)cnc34)cc2OC)nc1` [Example 100, 8-((5-methoxy-6-((5-methoxypyridin-2-yl)methoxy)pyridin-3-yl)methyl)-N,N-dimethyl-1,5-naphthyridin-3-amine], the IC50 is 0.0022 µM on CSF-1R (Table 2); 0.0022 µM on CSF-1R (Table 3); 0.875 µM on c-Kit; greater than 1 µM on FLT3; 0.378 µM at PDGFRβ. On c-Kit, the “cKit Fold” value is greater than 100 fold. In addition, the “FLT3 Fold” value at FLT3 was greater than 100 fold. Moreover, on PDGFRβ, the “PDGFR-1β Fold” value is reported as greater than 100 fold. In addition, the EC50 was determined as 0.0171 µM in test [1] and 0.01 µM in the test with EOC2 cell.
For `COc1cnc2c(Cc3cnc(OCc4ccc(C)cn4)c(OC)c3)ccnc2c1` [Example 55], the IC50 at CSF-1R (Table 2) is 0.0032 µM; on CSF-1R (Table 3), 0.0032 µM; on c-Kit it was 0.785 µM; at FLT3 it was greater than 1 µM; at PDGFRβ, 0.322 µM. Further, the “cKit Fold” value at c-Kit is listed as greater than 100 fold. Besides, the “FLT3 Fold” value at FLT3 was greater than 100 fold. At PDGFRβ, the “PDGFR-1β Fold” value is greater than 100 fold. The EC50 came to 0.155 µM in test [1] and 0.0454 µM with EOC2 cell.
Take `COc1cnc2c(Cc3cnc(OCc4cc(C)n(C)n4)c(OC)c3)ccnc2c1` [Example 82]: the IC50 was 0.0046 µM at CSF-1R (Table 2); 0.0046 µM at CSF-1R (Table 3); greater than 1 µM on c-Kit; greater than 1 µM on FLT3; greater than 1 µM on PDGFRβ. Moreover, at c-Kit, the “cKit Fold” value is greater than 100 fold. Also, at FLT3, the “FLT3 Fold” value is reported as greater than 100 fold. The “PDGFR-1β Fold” value on PDGFRβ is on record as greater than 100 fold. Also, the EC50 in test [1] came out at 0.161 µM; in the test with EOC2 cell, 0.116 µM.

By IC50 is commonly meant the concentration that inhibits the measured activity by half. One may read the EC50 as the concentration needed to bring the measured effect to its halfway point.

(Values after patent US20250360145A1, “CSF-1R INHIBITORS AND USES THEREOF” (Myrobalan Therapeutics, Inc., priority 2022, published 2025).)
